pIC50: −log10 of the molar value.
Each compound was assayed on NCI-H358 cells expressing KRAS-G12C (assay: Growth inhibition of tumor cell line expressing KRAS-G12C (Cell Titer Glo), NCI-H358). Settings: Homo sapiens, NCI-H358, 72 h.
Type: cell-based
Experimental: (§1) The ability of the compounds of the present disclosure to inhibit the growth of cells expressing KRAS-G12C was evaluated by measuring the cell viability and calculating the GI50 values.
(§2) The tumor cell line NCI-H358 (ATCC catalogue number CRL-5807) expressing KRAS-G12C was cultured in RPMI medium supplemented with 10% fetal bovine serum and penicillin/streptomycin, and the tumor cell line MIA PaCa2 (ATCC CRL-1420) expressing KRAS-G12C was cultured in DMEM medium supplemented with 10% fetal bovine serum, 2.5% horse serum, and penicillin/streptomycin.
(§3) Cells NCI-H358 and MIA-Paca2 were inoculated into black transparent bottom 384-well plate (PerkinElmer catalogue number 6007460) with cell density of 1000 and 800 respectively, and the cells were allowed to adhere to the wall overnight (8-12 hours). After the cells adhered to the wall, the experimental group was added with the compound of the present disclosure diluted 5 times the concentration of the working solution (final concentration containing 0.1% dimethyl sulfoxide, i.e. DMSO); the control group was added with the same dilution as the experimental group (final concentration containing 0.1% DMSO). After 72 hours, Cell Titer Glo reagent (Promega catalogue number G7572) was used to detect ATP content according to the instruction method to determine the amount of cell proliferation. The brief operation steps were as follows: the cell plate was taken out and kept at normal temperature for equilibrium for 30 minutes; Cell Titer Glo reagent with the same volume as the culture was added; the culture plate was placed on a shaker for shaking and cracking for 2 minutes; the culture plate was left to stand at room temperature for 10 minutes; then the light signal value was read by microplate reader EnVision (PerkinElmer).
(§4) Data from all experimental groups were used to calculate the respective percent inhibition using the DMSO group, and the GI50 was calculated using the data processing software GraphPad to analyze the inhibition rates produced by the 9 compound dose concentrations diluted at ⅓-fold ratio.

SMILES | GI50 [nM]
C=CC(=O)N1C[C@@H]2C(=O)N(C)c3c(c4cc(F)c(-c5c(O)cccc5F)nc4n(-c4ccccc4C(C)C)c3=O)N2C[C@H]1C (atropisomer, axis not shown) [Compound 7B] | 148

Same assay, conditions: NCI-H358, 72 hours

SMILES | GI50 [nM]
C=CC(=O)N1C[C@@H]2COc3c(c4cc(F)c(-c5c(O)cccc5F)c(F)c4n(-c4c(C)ccnc4C(C)C)c3=O)N2C[C@H]1C (atropisomer, axis not shown) [Compound 3B-1] | 27

What follows are compounds tested on MIA PaCa2 cells expressing KRAS-G12C (assay: Growth inhibition of tumor cell line expressing KRAS-G12C (Cell Titer Glo), MIA PaCa2). Settings: Homo sapiens, MIA PaCa-2, 72 h, MIA-Paca2, 72 hours.
Type: cell-based
Experimental: as §1, §2, §3, §4

SMILES | GI50 [nM]
C=CC(=O)N1C[C@@H]2C(=O)N(C)c3c(c4cc(F)c(-c5c(O)cccc5F)nc4n(-c4ccccc4C(C)C)c3=O)N2C[C@H]1C (atropisomer, axis not shown) [Compound 7B] | 328

Same assay, conditions: MIA-Paca2, 72 hours

SMILES | GI50 [nM]
C=CC(=O)N1C[C@@H]2COc3c(c4cc(F)c(-c5c(O)cccc5F)c(F)c4n(-c4c(C)ccnc4C(C)C)c3=O)N2C[C@H]1C (atropisomer, axis not shown) [Compound 3B-1] | 166

These compounds were tested on phosphorylated ERK (Thr202/Tyr204) in NCI-H358 cells expressing mutant RAS(G12C) (assay: Inhibition of RAS-mediated signal transduction: phosphorylated ERK ELISA in NCI-H358 cells). Settings: Homo sapiens, NCI-H358, 2 h, NCI-H358 cells, 2 hours of treatment, pERK normalized by Janus Green B; read-out: p-ERK IC50 (NCI H358).
Type: cell-based
Experimental: The cells were treated with or without the compound of the present disclosure (dimethyl sulfoxide, DMSO), and the final concentration of DMSO was guaranteed to be 0.5%. After 2 hours of treatment, the medium was removed and 4% paraformaldehyde (Beyotime catalog number E672002-0100) was added and left to stand for 20 minutes. Cells were washed with PBS after fixation and incubated with precooled methanol for 10 min to permeabilize the cell membrane.
The level of phosphorylated ERK was detected using an enzyme linked immunosorbent assay (ELISA) method. […] The plates were washed 5 times with PBS containing 0.05% Tween 20. […] The reaction was stopped by adding 1 mol/L H2SO4, and the OD value was read at 450 nm by EnVision (PerkinElmer).
The total number of cells per well was detected by Janus Green B staining method. After detecting the level of phosphorylated ERK, the 96-well plate was washed with PBS until colorless, and 0.1% Janus Green B (Abcam catalogue number ab111622) was added to incubate for 10 minutes. After the 96-well plate was washed with double distilled water, 0.1 mol/L HCl was added, then the mixture was shaked and incubated for 10 minutes. The OD value was read at 595 nm by EnVision (PerkinElmer).
The signal of pERK (Thr202/Tyr204) was normalized by the signal value of Janus Green B, and the inhibition percentage after drug treatment relative to DMSO reference was calculated. The percentage values were fitted by a four-parameter dose-response curve and generated IC50 values.

SMILES | pIC50
C=CC(=O)N1C[C@@H]2C(=O)N(C)c3c(c4cc(F)c(-c5c(O)cccc5F)nc4n(-c4ccccc4C(C)C)c3=O)N2C[C@H]1C (atropisomer, axis not shown) [Compound 7B] | 7.01
C=CC(=O)N1C[C@@H]2COc3c(c4cc(F)c(-c5c(F)cccc5OC)nc4n(-c4ccccc4C(C)C)c3=O)N2C[C@H]1C [Compound 1A] | 6.76
C=CC(=O)N1C[C@@H]2COc3c(c4cc(Cl)c(-c5c(O)cccc5F)nc4n(C)c3=O)N2C[C@H]1C [Compound 9] | 5.71
C=CC(=O)N1C[C@@H]2CNc3c(c4cc(F)c(-c5c(O)cccc5F)nc4n(-c4ccccc4C(C)C)c3=O)N2C[C@H]1C [Compound 11A] | 5.95
C=CC(=O)N1CCN2c3c(c(=O)n(-c4ccccc4C(C)C)c4nc(-c5c(O)cccc5F)c(F)cc34)OC[C@H]2C1 [Compound 12A] | 6.22
C=CC(=O)N1C[C@@H]2COc3c(c4cc(F)c(-c5c(C)ccc6[nH]cnc56)nc4n(-c4ccccc4C(C)C)c3=O)N2C[C@H]1C [Compound 17] | 6.56
C=CC(=O)N1C[C@@H]2C(=O)N(CCN(C)C)c3c(c4cc(F)c(-c5c(O)cccc5F)c(F)c4n(-c4c(C)ccnc4C(C)C)c3=O)N2C[C@H]1C [Compound 24A] | 5.42
C=CC(=O)N1C[C@@H]2C(=O)N(C)c3c(c4cc(F)c(-c5ccccc5F)c(F)c4n(-c4c(C)ccnc4C(C)C)c3=O)N2C[C@H]1C [Compound 31A] | 5.67
C=CC(=O)N1C[C@@H]2C(=O)N(C)c3c(c4cc(F)c(-c5c(N)cccc5F)c(F)c4n(-c4c(C)ccnc4C(C)C)c3=O)N2C[C@H]1C [Compound 33A-1] | 6.14
C=CC(=O)N1C[C@@H]2CN(CCCN(C)C)c3c(c4cc(F)c(-c5c(O)cccc5F)c(F)c4n(-c4c(C)ccnc4C(C)C)c3=O)N2C[C@H]1C [Compound 34A] | 6.30
C=CC(=O)N1C[C@@H]2C(=O)N(C3CN(C)C3)c3c(c4cc(F)c(-c5c(F)cccc5OC)c(F)c4n(-c4c(C)ccnc4C(C)C)c3=O)N2C[C@H]1C [Compound 43] | 5.72
C=CC(=O)N1C[C@@H]2COc3c(c4cc(Cl)c(-c5c(O)cccc5F)c(F)c4n(C[C@@H]4CCCN4C)c3=O)N2C[C@H]1C [Compound 45A] | 5.81
C=CC(=O)N1C[C@@H]2C(=O)N(C)c3c(c4cc(F)c(-c5ccccc5O)c(F)c4n(-c4c(C)ccnc4C(C)C)c3=O)N2C[C@H]1C [Compound 46A] | 5.69
C=CC(=O)N1C[C@@H]2C(=O)N(C)c3c(c4cc(F)c(-c5c(C)ccc6[nH]nc(C7CC7)c56)c(F)c4n(-c4c(C)ccnc4C(C)C)c3=O)N2C[C@H]1C [Compound 47A] | 5.81
C=CC(=O)N1C[C@@H]2C(=O)N(CCN(C)C)c3c(c4cc(F)c(-c5c(F)cccc5OC)c(F)c4n(-c4c(C)ccnc4C(C)C)c3=O)N2C[C@H]1C [Compound 48A-1] | 6.53
C=CC(=O)N1C[C@]2(CO)C(=O)N(C)c3c(c4cc(F)c(-c5c(O)cccc5F)nc4n(-c4c(C)ccnc4C(C)C)c3=O)N2C[C@H]1C [Compound 51A] | 5.89

Same assay, conditions: NCI-H358 cells, 2 hours of treatment, pERK normalized by Janus Green B; read-out: p-ERK IC50 (NCI H358)

SMILES | pIC50
C=CC(=O)N1C[C@@H]2COc3c(c4cc(F)c(-c5c(O)cccc5F)c(F)c4n(-c4c(C)ccnc4C(C)C)c3=O)N2C[C@H]1C (atropisomer, axis not shown) [Compound 3A-1] | 5.52
C=CC(=O)N1C[C@@H]2COc3c(c4cc(F)c(-c5c(O)cccc5F)c(F)c4n(-c4c(C)ccnc4C(C)C)c3=O)N2C[C@H]1C (atropisomer, axis not shown) [Compound 3B-1] | 7.59
C=CC(=O)N1C[C@@H]2CN(C)c3c(c4cc(F)c(-c5c(O)cccc5F)c(F)c4n(-c4c(C)ccnc4C(C)C)c3=O)N2C[C@H]1C (atropisomer, axis not shown) [Compound 16B-1] | 6.19
C=CC(=O)N1C[C@@H]2C(=O)N(CCN(C)C)c3c(c4cc(Cl)c(-c5c(O)cccc5F)c(F)c4n(-c4c(CC)ccnc4C(C)C)c3=O)N2C[C@H]1C (atropisomer, axis not shown) [Compound 54A-2] | 6.07
C=CC(=O)N1C[C@@H]2COc3c(c4cc(F)c(-c5c(F)cccc5OC)nc4n(-c4c(C)ccnc4C(C)C)c3=O)N2C[C@H]1C (single isomer, unassigned) [Compound 6B] | 6.16
C=CC(=O)N1C[C@@H]2COc3c(c4cc(F)c(-c5c(C)ccc6[nH]ncc56)nc4n(-c4ccccc4C(C)C)c3=O)N2C[C@H]1C (single isomer, unassigned) [Compound 13B] | 5.25
C=CC(=O)N1C[C@@H]2CN(C)c3c(c4cc(F)c(-c5c(O)cccc5F)c(F)c4n(-c4c(C)ccnc4C(C)C)c3=O)N2C[C@H]1C (single isomer, unassigned) [Compound 16B] | 5.90
C=CC(=O)N1CC2COc3c(c4cc(F)c(-c5c(O)cccc5F)c(F)c4n(-c4c(C(C)C)ncnc4C(C)C)c3=O)N2CC1C (single isomer, unassigned) [Compound 19B] | 6.03
C=CC(=O)N1C[C@@H]2COc3c(c4cc(F)c(-c5c(O)cccc5F)c(F)c4n(-c4c(C)ccnc4C(C)C)c3=O)N2C[C@H]1C [Compound 3A-2] | 5.28
C=CC(=O)N1C[C@@H]2COc3c(c4cc(F)c(-c5c(O)cccc5F)c(F)c4n(-c4c(C)ccnc4C(C)C)c3=O)N2C[C@H]1C [Compound 3A] | 6.32
C=CC(=O)N1C[C@@H]2C(=O)N(C)c3c(c4cc(F)c(-c5c(O)cccc5F)c(F)c4n(-c4c(C)ccnc4C(C)C)c3=O)N2C[C@H]1C [Compound 21A] | 7.89
C=CC(=O)N1C[C@@H]2C(=O)N(C)c3c(c4cc(F)c(-c5c(O)cccc5F)c(F)c4n(-c4c(C)ccnc4C(C)C)c3=O)N2C[C@H]1C [Compound 21B-1] | 5.65
C=CC(=O)N1C[C@@H]2C(=O)N(C)c3c(c4cc(F)c(-c5c(O)cccc5F)c(F)c4n(-c4c(C)ccnc4C(C)C)c3=O)N2C[C@H]1C [Compound 21B] | 6.51
C=CC(=O)N1C[C@@H]2C(=O)Nc3c(c4cc(F)c(-c5c(O)cccc5F)c(F)c4n(-c4c(C)ccnc4C(C)C)c3=O)N2C[C@H]1C [Compound 22B-1] | 6.67
C=CC(=O)N1C[C@@H]2C(=O)Nc3c(c4cc(F)c(-c5c(O)cccc5F)c(F)c4n(-c4c(C)ccnc4C(C)C)c3=O)N2C[C@H]1C [Compound 22B] | 6.26
C=CC(=O)N1C[C@@H]2C(=O)N(C)c3c(c4cc(Cl)c(-c5c(O)cccc5F)c(F)c4n(-c4c(C)ccnc4C(C)C)c3=O)N2C[C@H]1C [Compound 23B-1] | 6.82
C=CC(=O)N1C[C@@H]2C(=O)N(C)c3c(c4cc(Cl)c(-c5c(O)cccc5F)c(F)c4n(-c4c(C)ccnc4C(C)C)c3=O)N2C[C@H]1C [Compound 23B-2] | 6.13
C=CC(=O)N1C[C@@H]2CN(CC(=O)OC)c3c(c4cc(F)c(-c5c(O)cccc5F)c(F)c4n(-c4c(C)ccnc4C(C)C)c3=O)N2C[C@H]1C [Compound 38A-1] | 6.62
C=CC(=O)N1C[C@@H]2CN(CC(=O)OC)c3c(c4cc(F)c(-c5c(O)cccc5F)c(F)c4n(-c4c(C)ccnc4C(C)C)c3=O)N2C[C@H]1C [Compound 38B-1] | 5.95
C=CC(=O)N1C[C@@H]2CN(CC(=O)O)c3c(c4cc(F)c(-c5c(O)cccc5F)c(F)c4n(-c4c(C)ccnc4C(C)C)c3=O)N2C[C@H]1C [Compound 39A-1] | 5.78
C=CC(=O)N1C[C@@H]2CN(CC(=O)O)c3c(c4cc(F)c(-c5c(O)cccc5F)c(F)c4n(-c4c(C)ccnc4C(C)C)c3=O)N2C[C@H]1C [Compound 39A] | 6.10
C=CC(=O)N1C[C@@H]2C(=O)N(CCN(C)C)c3c(c4cc(Cl)c(-c5c(O)cccc5F)c(F)c4n(-c4c(CC)ccnc4C(C)C)c3=O)N2C[C@H]1C [Compound 54A-1] | 6.19

Reference: patent US12122787B2, “Fused pyridone compound, and preparation method therefor and use thereof” (SHANGHAI JEMINCARE PHARMACEUTICALS CO., LTD, priority 2019, dated 2024)
